Assay results as given in paper PMC4685510, “A Cell Biologist’s Field Guide to Aurora Kinase Inhibitors” (Frontiers in Oncology, 2015).

Tests used:
Assay in all cases: biochemical
Format in all cases: biochemical
[1] = target: T1, 363 human kinases (including Aurora A/B/C) (Homo sapiens, UniProt Q96L34); settings: MARK4; for remaining activity at 0.1 µM: 100 nM; for remaining activity at 0.1 µM / remaining activity at 0.5 µM: read-out: % Enzyme Activity (relative to DMSO controls)
T1 sequence (Q96L34 1-752): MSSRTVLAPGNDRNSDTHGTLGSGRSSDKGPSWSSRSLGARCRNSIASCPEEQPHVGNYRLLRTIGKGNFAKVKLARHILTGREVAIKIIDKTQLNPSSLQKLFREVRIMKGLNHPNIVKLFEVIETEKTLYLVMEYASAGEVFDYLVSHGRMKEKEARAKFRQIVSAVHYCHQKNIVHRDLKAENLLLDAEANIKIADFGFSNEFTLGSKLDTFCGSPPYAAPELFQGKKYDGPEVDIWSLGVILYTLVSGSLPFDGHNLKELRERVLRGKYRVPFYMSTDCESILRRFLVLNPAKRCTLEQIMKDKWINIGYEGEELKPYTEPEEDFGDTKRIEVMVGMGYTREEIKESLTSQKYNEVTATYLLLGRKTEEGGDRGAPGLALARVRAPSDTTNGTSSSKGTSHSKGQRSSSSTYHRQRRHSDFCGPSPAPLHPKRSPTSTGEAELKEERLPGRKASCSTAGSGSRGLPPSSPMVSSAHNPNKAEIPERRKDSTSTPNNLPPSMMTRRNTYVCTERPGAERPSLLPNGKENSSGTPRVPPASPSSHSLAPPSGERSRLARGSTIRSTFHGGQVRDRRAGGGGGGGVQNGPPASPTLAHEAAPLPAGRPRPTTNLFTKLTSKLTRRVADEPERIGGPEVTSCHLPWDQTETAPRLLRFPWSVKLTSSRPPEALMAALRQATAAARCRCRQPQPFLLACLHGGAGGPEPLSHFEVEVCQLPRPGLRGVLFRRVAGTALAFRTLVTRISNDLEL
Description: (§1) However, the Aurora A/B selectivity ratios derived from our in vitro and in vivo data can be compared to prioritize inhibitors.

[2] = target: 363 human kinases (including Aurora A/B/C) (Homo sapiens, UniProt Q13177); settings: PAK2; for remaining activity at 0.1 µM: 100 nM; for remaining activity at 0.1 µM / remaining activity at 0.5 µM: read-out: % Enzyme Activity (relative to DMSO controls)
Description: as §1

[3] = target: T2, 363 human kinases (including Aurora A/B/C) (Homo sapiens, UniProt P45985); settings: MKK4; for remaining activity at 0.1 µM: 100 nM; for remaining activity at 0.1 µM / remaining activity at 0.5 µM: read-out: % Enzyme Activity (relative to DMSO controls)
T2 sequence (P45985 1-399): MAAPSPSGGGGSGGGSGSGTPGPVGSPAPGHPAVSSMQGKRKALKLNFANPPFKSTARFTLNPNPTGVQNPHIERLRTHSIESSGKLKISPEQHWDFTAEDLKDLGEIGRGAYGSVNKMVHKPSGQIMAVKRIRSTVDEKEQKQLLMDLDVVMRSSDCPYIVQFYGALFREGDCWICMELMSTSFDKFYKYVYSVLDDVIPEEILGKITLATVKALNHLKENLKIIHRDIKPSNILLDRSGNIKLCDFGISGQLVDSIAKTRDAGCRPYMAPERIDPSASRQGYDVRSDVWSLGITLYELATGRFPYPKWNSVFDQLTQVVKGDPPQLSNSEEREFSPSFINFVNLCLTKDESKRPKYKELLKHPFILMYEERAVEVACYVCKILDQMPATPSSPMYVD
Description: as §1

[4] = target: 363 human kinases (including Aurora A/B/C) (Homo sapiens, UniProt Q9UEW8); settings: STK39/STLK3; for remaining activity at 0.1 µM: 100 nM; for remaining activity at 0.1 µM / remaining activity at 0.5 µM: read-out: % Enzyme Activity (relative to DMSO controls)
Description: as §1

[5] = target: T3, 363 human kinases (including Aurora A/B/C) (Homo sapiens, UniProt P46734); settings: MEK3; for remaining activity at 0.1 µM: 100 nM; for remaining activity at 0.1 µM / remaining activity at 0.5 µM: read-out: % Enzyme Activity (relative to DMSO controls)
T3 sequence (P46734 1-347): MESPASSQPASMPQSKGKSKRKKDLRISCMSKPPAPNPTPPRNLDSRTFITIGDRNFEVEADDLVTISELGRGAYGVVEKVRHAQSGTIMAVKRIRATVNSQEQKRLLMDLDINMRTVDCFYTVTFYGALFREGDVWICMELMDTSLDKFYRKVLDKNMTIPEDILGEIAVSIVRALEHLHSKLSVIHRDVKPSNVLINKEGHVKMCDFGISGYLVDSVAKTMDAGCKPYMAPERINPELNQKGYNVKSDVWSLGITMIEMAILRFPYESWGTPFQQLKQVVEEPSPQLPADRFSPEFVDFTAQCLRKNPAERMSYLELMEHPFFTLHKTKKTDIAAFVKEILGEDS
Description: as §1

[6] = target: 363 human kinases (including Aurora A/B/C) (Homo sapiens, UniProt Q9HCP0); settings: CK1g1, [ATP] 20 µM; for remaining activity at 0.1 µM: 100 nM; for remaining activity at 0.1 µM / remaining activity at 0.5 µM: read-out: % Enzyme Activity (relative to DMSO controls)
Description: as §1

[7] = target: 363 human kinases (including Aurora A/B/C) (Homo sapiens, UniProt P37023); settings: ALK1/ACVRL1, [ATP] 100 µM; for remaining activity at 0.1 µM: 100 nM; for remaining activity at 0.1 µM / remaining activity at 0.5 µM: read-out: % Enzyme Activity (relative to DMSO controls)
Description: as §1

[8] = target: 363 human kinases (including Aurora A/B/C) (Homo sapiens, UniProt O60674); settings: JAK2; for remaining activity at 0.1 µM: 100 nM; for remaining activity at 0.1 µM / remaining activity at 0.5 µM: read-out: % Enzyme Activity (relative to DMSO controls)
Sequence of 363 human kinases (including Aurora A/B/C) (Homo sapiens, UniProt O60674) (O60674 whole entry): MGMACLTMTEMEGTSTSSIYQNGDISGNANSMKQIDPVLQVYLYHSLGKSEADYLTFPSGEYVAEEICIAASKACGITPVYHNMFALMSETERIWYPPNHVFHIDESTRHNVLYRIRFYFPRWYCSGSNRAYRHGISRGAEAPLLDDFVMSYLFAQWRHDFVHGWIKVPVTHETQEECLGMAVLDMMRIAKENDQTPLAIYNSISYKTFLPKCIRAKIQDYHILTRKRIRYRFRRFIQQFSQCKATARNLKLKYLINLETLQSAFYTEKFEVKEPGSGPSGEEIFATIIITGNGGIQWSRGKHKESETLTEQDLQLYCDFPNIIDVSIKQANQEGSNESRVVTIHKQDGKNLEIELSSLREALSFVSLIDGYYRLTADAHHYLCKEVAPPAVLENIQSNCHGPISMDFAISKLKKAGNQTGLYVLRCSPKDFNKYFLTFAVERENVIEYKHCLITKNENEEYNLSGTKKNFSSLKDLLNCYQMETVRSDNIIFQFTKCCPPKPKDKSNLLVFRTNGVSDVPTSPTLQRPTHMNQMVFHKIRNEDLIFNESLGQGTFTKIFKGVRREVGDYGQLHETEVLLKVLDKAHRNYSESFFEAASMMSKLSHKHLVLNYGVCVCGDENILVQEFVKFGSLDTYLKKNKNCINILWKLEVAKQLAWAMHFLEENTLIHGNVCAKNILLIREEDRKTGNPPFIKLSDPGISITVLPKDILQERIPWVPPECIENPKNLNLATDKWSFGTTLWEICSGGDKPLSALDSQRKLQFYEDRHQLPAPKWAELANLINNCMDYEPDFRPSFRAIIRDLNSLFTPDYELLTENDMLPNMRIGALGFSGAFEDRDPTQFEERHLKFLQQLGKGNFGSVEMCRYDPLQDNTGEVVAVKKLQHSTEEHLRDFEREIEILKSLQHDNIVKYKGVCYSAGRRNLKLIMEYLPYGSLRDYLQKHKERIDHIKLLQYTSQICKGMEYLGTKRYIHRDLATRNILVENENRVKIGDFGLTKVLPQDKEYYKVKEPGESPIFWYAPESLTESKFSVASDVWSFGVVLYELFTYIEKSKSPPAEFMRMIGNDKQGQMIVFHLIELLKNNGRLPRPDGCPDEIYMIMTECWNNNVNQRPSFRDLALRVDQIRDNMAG
Description: as §1

Sequence of 363 human kinases (including Aurora A/B/C) (Homo sapiens, UniProt Q9HCP0) (Q9HCP0 whole entry): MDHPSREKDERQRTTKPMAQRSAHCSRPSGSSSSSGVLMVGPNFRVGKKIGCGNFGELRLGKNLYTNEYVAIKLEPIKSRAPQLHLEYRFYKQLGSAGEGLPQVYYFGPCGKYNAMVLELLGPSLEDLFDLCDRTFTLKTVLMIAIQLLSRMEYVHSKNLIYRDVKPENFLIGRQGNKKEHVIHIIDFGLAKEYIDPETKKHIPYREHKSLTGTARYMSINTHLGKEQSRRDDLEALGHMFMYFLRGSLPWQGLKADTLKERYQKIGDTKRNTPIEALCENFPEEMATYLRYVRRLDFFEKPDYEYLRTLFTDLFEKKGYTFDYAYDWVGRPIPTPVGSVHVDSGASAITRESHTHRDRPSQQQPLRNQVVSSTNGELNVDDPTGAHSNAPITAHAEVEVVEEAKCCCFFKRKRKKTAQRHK
Sequence of 363 human kinases (including Aurora A/B/C) (Homo sapiens, UniProt Q13177) (Q13177 whole entry): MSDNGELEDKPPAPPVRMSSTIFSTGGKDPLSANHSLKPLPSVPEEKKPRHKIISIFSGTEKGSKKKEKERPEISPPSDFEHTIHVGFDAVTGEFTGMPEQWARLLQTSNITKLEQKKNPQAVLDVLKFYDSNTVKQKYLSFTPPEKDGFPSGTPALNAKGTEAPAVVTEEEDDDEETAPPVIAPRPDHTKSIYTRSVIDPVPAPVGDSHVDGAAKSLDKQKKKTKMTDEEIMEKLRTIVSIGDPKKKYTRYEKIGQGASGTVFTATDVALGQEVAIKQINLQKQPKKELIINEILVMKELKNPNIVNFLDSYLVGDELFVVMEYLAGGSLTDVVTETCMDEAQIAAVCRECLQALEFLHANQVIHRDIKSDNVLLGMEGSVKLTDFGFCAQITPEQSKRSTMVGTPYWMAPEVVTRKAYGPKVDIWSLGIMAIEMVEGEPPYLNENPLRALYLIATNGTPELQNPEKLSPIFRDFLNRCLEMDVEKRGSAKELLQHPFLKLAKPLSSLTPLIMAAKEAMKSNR
Sequence of 363 human kinases (including Aurora A/B/C) (Homo sapiens, UniProt P37023) (P37023 22-503): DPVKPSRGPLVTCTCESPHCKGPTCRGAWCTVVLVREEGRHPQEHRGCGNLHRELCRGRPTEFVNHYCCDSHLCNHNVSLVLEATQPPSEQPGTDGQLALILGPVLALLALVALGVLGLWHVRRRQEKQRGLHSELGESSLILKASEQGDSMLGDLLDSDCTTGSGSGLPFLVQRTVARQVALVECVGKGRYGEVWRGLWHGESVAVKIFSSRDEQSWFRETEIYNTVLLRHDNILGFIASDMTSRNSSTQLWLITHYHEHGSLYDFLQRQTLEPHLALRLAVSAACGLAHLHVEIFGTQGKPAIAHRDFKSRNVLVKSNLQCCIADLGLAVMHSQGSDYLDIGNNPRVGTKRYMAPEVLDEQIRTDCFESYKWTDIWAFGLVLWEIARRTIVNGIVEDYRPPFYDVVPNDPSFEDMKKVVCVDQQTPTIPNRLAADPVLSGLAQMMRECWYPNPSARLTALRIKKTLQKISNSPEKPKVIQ

Row | Structure (SMILES) | remaining activity at 0.1 µM [1] [%] | remaining activity at 0.1 µM [2] [%] | remaining activity at 0.1 µM [3] [%] | remaining activity at 0.1 µM [4] [%] | remaining activity at 0.1 µM [5] [%] | remaining activity at 0.1 µM [6] [%] | remaining activity at 0.1 µM [7] [%] | remaining activity at 0.1 µM [8] [%] | remaining activity at 0.5 µM ([1]; 500 nM) [%] | remaining activity at 0.5 µM ([2]; 500 nM) [%] | remaining activity at 0.5 µM ([3]; 500 nM) [%] | remaining activity at 0.5 µM ([4]; 500 nM) [%] | remaining activity at 0.5 µM ([5]; 500 nM) [%] | remaining activity at 0.5 µM ([6]; 500 nM) [%] | remaining activity at 0.5 µM ([7]; 500 nM) [%] | remaining activity at 0.5 µM ([8]; 500 nM) [%] | other results
1 | CCn1cc(-c2ccnc3[nH]c(-c4cccc(CN(C)C)c4)cc23)c(-c2ccc(NC(=O)N(C)C)cc2)n1 [GSK1070916] | 111 | 106 | 90.1 | 100 | 105 | 104 | 98.2 | 104 | – | – | – | – | – | – | – | – | –
2 | O=C(O)[C@]1(Cc2cccc(Nc3nccs3)n2)CC[C@@H](Oc2cccc(Cl)c2F)CC1 [MK-5108] | 106 | 97.1 | 95.7 | 105 | 89.7 | 93.2 | 51.3 | 31.1 | 101 | 98.2 | 97.7 | 97.4 | 99.7 | 101 | 36.5 | 7.8 | –
3 | O=C(c1cccc(Cl)c1F)N1CCN(Cc2cccc(Nc3nccs3)n2)CC1 [MK-8745] | – | – | – | – | – | – | – | – | 105 | 105 | 90.9 | 99.8 | 75.7 | 98.7 | 75.1 | 65.6 | % Enzyme Activity (relative to DMSO controls) ([1]; 500 nM): 102.33%; % Enzyme Activity (relative to DMSO controls) ([2]; 500 nM): 102.92%; % Enzyme Activity (relative to DMSO controls) ([3]; 500 nM): 89.78%; % Enzyme Activity (relative to DMSO controls) ([4]; 500 nM): 98.73%; % Enzyme Activity (relative to DMSO controls) ([5]; 500 nM): 72.05%; % Enzyme Activity (relative to DMSO controls) ([6]; 500 nM): 98.16%; % Enzyme Activity (relative to DMSO controls) ([7]; 500 nM): 71.54%; % Enzyme Activity (relative to DMSO controls) ([8]; 500 nM): 62.84%
